Assay [1] addresses T1, human GPR14 (Homo sapiens, UniProt Q9UKP6).
T1 construct: expressed in transfected cells; host or cells: CHO dhfr- cells stably transfected with pcDNA3.1-hGPR14 (CHO/hGPR14)
T1 sequence (Q9UKP6 1-389): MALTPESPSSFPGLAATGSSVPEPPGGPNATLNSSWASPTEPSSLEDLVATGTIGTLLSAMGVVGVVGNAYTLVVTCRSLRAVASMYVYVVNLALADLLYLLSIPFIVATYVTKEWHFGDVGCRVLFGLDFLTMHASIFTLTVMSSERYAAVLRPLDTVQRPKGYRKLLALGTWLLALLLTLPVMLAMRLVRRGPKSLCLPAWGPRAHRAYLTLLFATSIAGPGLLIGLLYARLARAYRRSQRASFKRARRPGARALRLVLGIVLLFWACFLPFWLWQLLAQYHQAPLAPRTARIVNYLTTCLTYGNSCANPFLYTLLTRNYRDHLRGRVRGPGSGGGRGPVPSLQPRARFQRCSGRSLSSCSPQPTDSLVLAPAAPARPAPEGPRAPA
Briefly: Inhibition of binding of [125I]-labeled human urotensin II to human GPR14-expressing CHO cell membrane fraction. To be noted: 25° C., 3 hours, read-out: Inhibitory concentration (concentration showing 50% inhibition of human GPR14 binding activity). As to the method:
To 1×10^8 CHO/GPR14 cells were added 10 ml of homogenate buffer (10 mM NaHCO3, 5 mM EDTA, 0.5 mM PMSF, 1 μg/ml pepstatin, 4 μg/ml E64, 20 μg/ml leupeptin), and disrupted using Polytron (12,000 rpm, 1 minute). Cell debris solution was centrifuged at 1,000 g for 15 minutes to obtain a supernatant. The supernatant was then […] (in Beckman type 30 rotor, 30,000 rpm, 1 hour), and the resultant precipitant was collected as human GPR14-expressing CHO cell fraction.
Isotope-labeled human urotensin II to be used in experiments for testing inhibition of binding was prepared as described below. 5 μg of human urotensin II (available from Peptide Institute, Inc.) was dissolved in 25 μl of 0.4 M sodium acetate (pH 5.6). […]
Human GPR14-expressing CHO cell fraction was diluted in a membrane diluting buffer (20 mM phosphate buffer (pH 7.3), 150 mM NaCl, 5 mM MgCl2, 0.1% BSA, 0.05% CHAPS, 0.5 mM PMSF, 0.1 μg/ml Pepstatin, 20 μg/ml Leupeptin, 4 μg/ml E-64) to prepare a solution of cell membrane fraction (protein concentration: 3 μg/ml) for assay. […] Next, the filter was washed three times with membrane diluting buffer (0.2 ml), added with 20 μl of Microscinti 20 (Packard), and determined for radioactivity in Topcount (Packard). Specific-binding is calculated by subtracting non-specific binding from the total binding. […]

Assay [2] addresses T2, GPR14-expressing CHO cells (Homo sapiens, UniProt Q9UKP6).
T2 construct: expressed in transfected cells; host or cells: CHO dhfr- cells stably transfected with pcDNA3.1-hGPR14 (CHO/hGPR14)
T2 sequence (Q9UKP6 1-389): T1 sequence (Q9UKP6 1-389)
Put plainly: Change in intracellular calcium concentration in human GPR14-expressing CHO cells (FLIPR, urotensin II-induced). Type of assay: cell-based. To be noted: antagonist activity assay, 10 nM urotensin II added. The protocol:
GPR14-expressing CHO cells were inoculated on a 96-well plate at 1×10^4 cell/well, cultured for 48 hours, and then washed with 0.1 ml of HBSS containing 20 mM HEPES(pH 7.4), 1% FCS and 1% penicillin-streptomycin (hereinafter referred to as “wash buffer”). Next, 100 μl of another wash buffer containing 4 μM Fluo3, 0.04% pluronic acid and 2.5 mM probenicid (hereinafter referred to as “reaction buffer”) was added thereto for reaction at 37° C. for 1 hour. The reaction buffer was then removed and the plate was washed three times with 0.2 ml of wash buffer. Then, 90 μl of wash buffer and 10 μl of a solution of test compound in dimethylsulfoxide diluted 10 times (by volume) in membrane diluting buffer were added for agonist activity assay, while, for antagonist activity assay, furthermore 10 μl of 10 nM urotensin II was additionally added to determine change in intracellular calcium concentration in FLIPR (Japan Molecular Device).

For assay [3], the target named is T3, human somatostatin receptor protein subtype 5 (SSTR5) (Homo sapiens, UniProt P35346).
T3 construct: expressed in transfected cells; host or cells: CHO (dhfr-) cells transfected with pA-1-11-SSTR5; clone SSTR5-32-4
Put plainly: Inhibition of binding of [125I]-somatostatin to SSTR5-expressing CHO cell membrane fraction. To be noted: 25° C., 60 minutes, Hill plots, read-out: IC50 (concentration at which 50% binding of [125I]-somatostatin was inhibited). As to the method: (3) —(CH2)h1—X^1—(CH2)h2—X^2—(CH2)h3— (h1, h2 and h3 are the same or different integers 0 to 10 provided that the sum of h1, h2 and h3 is 0 to 10, and X^1 and X^2 independently represent NH, O, S, SO or SO2 provided that, when h2 is 0, at least one of X^1 and X^2 is preferably NH); etc., and these divalent groups wherein some bonds have been converted into unsaturated bonds. […]
The SSTR5-expressing CHO cell membrane fraction prepared in Example 5 was diluted with the assay buffer to prepare a solution at a concentration of 3 •g/ml and pipetted into tubes (173 •l/tube). […] After filtration, the radioactivity of [^125I]-somatostatin remaining on the glass filer was measured with a • counter.
The degree of inhibition of binding (%) by each test substance was determined according to the following equation: The degree of inhibition of binding (%)=(radioactivity when the compound was added−radioactivity when DMSO solution was added)/(radioactivity when somatostatin was added−radioactivity when DMSO solution was added)×100. […]

Where a name gives a salt, the structure may show the parent alone.

T3 sequence (P35346 whole entry): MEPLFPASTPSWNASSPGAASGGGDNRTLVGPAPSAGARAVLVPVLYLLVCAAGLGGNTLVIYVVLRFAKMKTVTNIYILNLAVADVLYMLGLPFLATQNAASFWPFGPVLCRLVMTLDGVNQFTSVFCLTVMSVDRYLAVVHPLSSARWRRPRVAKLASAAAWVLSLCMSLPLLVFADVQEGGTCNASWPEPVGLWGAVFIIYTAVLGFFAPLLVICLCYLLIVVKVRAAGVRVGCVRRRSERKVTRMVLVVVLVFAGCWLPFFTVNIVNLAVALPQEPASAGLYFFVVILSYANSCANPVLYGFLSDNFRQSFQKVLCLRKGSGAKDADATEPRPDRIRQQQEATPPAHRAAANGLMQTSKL

Consider `NS(=O)(=O)c1ccc(CCN(Cc2cccc(-c3cccc(C(=O)NCCN4CCCC4)c3)c2)C(=O)CCCc2ccccc2)cc1` [Example 4, 3′-{({2-[4-(Aminosulfonyl)phenyl]ethyl}[4-phenylbutanoyl]amino)methyl}-N-[2-(1-pyrrolidinyl)ethyl][1,1′-biphenyl]-3-carboxamide hydrochloride], for which, in assay [1], the IC50 is 10 nM.
As to `NS(=O)(=O)c1ccc(CCN(Cc2cccc(-c3cccc(C(=O)NCCN4CCCC4)c3)c2)C(=O)COCc2ccccc2)cc1` [Example 6, 3′-{({2-[4-(Aminosulfonyl)phenyl]ethyl}[(benzyloxy)acetyl]amino)methyl}-N-[2-(1-pyrrolidinyl)ethyl][1,1′-biphenyl]-3-carboxamide hydrochloride], the IC50 in assay [1] amounted to 13 nM.
For the compound `NCCNC(=O)c1cccc(-c2cccc(CN(CCc3ccc(S(N)(=O)=O)cc3)C(=O)/C=C/c3ccccc3)c2)c1.O=C(O)C(F)(F)F` [Example 71, N-(2-Aminoethyl)-3′-({[4-(aminosulfonyl)phenethyl][(E)-3-phenyl-2-propenoyl]amino}methyl)[1,1′-biphenyl]-3-carboxamide trifluoroacetate], the “Inhibition of urotensin II-induced increase in intracellular calcium concentration” value in assay [2] is listed as “inhibited urotensin II-induced increase in intracellular calcium concentration”.
Consider `N=C(N)NCc1cccc(C(=O)N(Cc2cccc(-c3ccccc3C(=O)NCCN)c2)Cc2cccc3ccccc23)c1` [Example 325, N-(2-Aminoethyl)-3′-{[[3-({[amino(imino)methyl]amino}methyl)benzoyl](1-naphthylmethyl)amino]methyl}-1,1′-biphenyl-2-carboxamide trifluoroacetate], for which the IC50 in assay [3] was found to be 6 nM.
Same read-out and setting: as for `NCCNC(=O)c1ccccc1-c1cccc(CN(Cc2cccc3ccccc23)C(=O)c2ccc(S(N)(=O)=O)cc2)c1` [Example 328, N-(2-Aminoethyl)-3′-{[[4-(aminosulfonyl)benzoyl](1-naphthylmethyl)amino]methyl}-1,1′-biphenyl-2-carboxamide trifluoroacetate], the figure is 3 nM.

These data come from patent US7091247B2, “Biphenyl compound” (Takeda Pharmaceutical Company Limited, priority 2000, dated 2006).
